One assay has as its system T47D cell monolayers. As to the kind of experiment: Phosphorylation of IGFBP-3 by T47D cell monolayers. The class given is cell-based, human. The method, then:
(§1) Polystyrene tube were coated with streptavidin and blocked with bovine serum albumin, washed in saline and stored at −20° C. until used. Biotinylated IGFBP-3 (500 ng) was added in streptavidin-coated tubes for 2 h on ice. At the end of incubation, excess, unbound IGFBP-3 was removed. Tubes were placed on ice and phosphorylation reaction mixture containing 20 mM Tris buffered saline pH 7.5, 10 mM Mg/ATP, 60 μCi/ml ^32P-ATP was added. Reaction was initiated by the addition of membrane fraction and allowed to proceed for 30 min at 30° C. Reaction was stopped by addition of SDS-PAGE sample buffer, boiled for 7–10 min and analyzed on 11% gel. Subsequently gels were dried and processed for autoradiography. In some cases 2 μU of pure TG2 (Sigma-Aldrich, MO) or histidine-tagged full length human TG2 expressed using baculovirus expression system in insect cells and purified by Ni(II)-nitroacetate agarose chromatography was used to phosphorylate IGFBP-3 in presence or absence of TG2 specific inhibitors. In experiments where cell monolayers were used to phosphorylate IGFBP-3, cells were grown in 24-well culture plate to near confluence and washed with PBS to remove residual media and serum. Phosphorylation was then performed in 100 pI reaction mixture as above, containing 1 μg IGFBP-3 for 10 min at 37° C. At the end of incubation, reaction mixture was aspirated, reaction was stopped by addition of sample buffer and analyzed on 11% gel. In some experiments, cell monolayer were treated with TG2 inhibitor for 30 min prior to the phosphorylation reaction.
We assessed the effect of the TG2 and ROCK2 inhibitors on phosphorylation of IGFBP-3 by cell monolayers. We have previously shown that intact washed cells were able to phosphorylate IGFBP-3 immobilized on polystyrene tubes (Mishra and Murphy, 2003). T47D cell monolayers were incubated for 30 minutes in the presence of various concentrations of cystamine, an inhibitor of TG2. […] After termination of the incubation, the IGFBP-3 was analyzed by SDS-PAGE and autoradiography (FIG. 2A). […]

In a further assay the test system is T47D cell membranes. Kind of assay: Phosphorylation of IGFBP-3 by T47D cell membranes. The assay is classed as biochemical, human. Conditions: cystamine 20 μM (10 and 20 μM in FIG. 2C), MDC 200 μM, ROCK2 inhibitor 2 and 5 μM (FIG. 2B, 2C). The procedure:
as §1
We assessed the effect of the TG2 and ROCK2 inhibitors on phosphorylation of IGFBP-3 by cell monolayers. We have previously shown that intact washed cells were able to phosphorylate IGFBP-3 immobilized on polystyrene tubes (Mishra and Murphy, 2003). T47D cell monolayers were incubated for 30 minutes in the presence of various concentrations of cystamine, an inhibitor of TG2. The washed cell monolayers were incubated with IGFBP-3 in the presence of ^32P-ATP for 10 minutes at 37° C. After termination of the incubation, the IGFBP-3 was analyzed by SDS-PAGE and autoradiography (FIG. 2A). […] Similar experiments were undertaken utilizing membrane preparations from both T47D and MCF-7 cells. As reported previously both T47D and MCF-7 cells were able to phosphorylate IGFBP-3. This process was inhibited by cystamine and MDC in both cells lines (FIG. 2B). DMSO the vehicle in which MDC was dissolved had no effect. Since TG2 has been found in association with ROCK2, a Rho-kinase (Singh et al., 2001, EMBO J., 20:2413–2423), and ROCK2 was present in the affinity purified cell membrane fractions, we investigated the effect of the ROCK2 inhibitor, R (+)trans-N-(4-pyridyl)-4-(1aminoethyl)-cyclohexanecarboxamide dihydrochloride. […]

The target of assay [1] is T1, TG2 (Homo sapiens, UniProt P21980).
T1 sequence (P21980 1-687): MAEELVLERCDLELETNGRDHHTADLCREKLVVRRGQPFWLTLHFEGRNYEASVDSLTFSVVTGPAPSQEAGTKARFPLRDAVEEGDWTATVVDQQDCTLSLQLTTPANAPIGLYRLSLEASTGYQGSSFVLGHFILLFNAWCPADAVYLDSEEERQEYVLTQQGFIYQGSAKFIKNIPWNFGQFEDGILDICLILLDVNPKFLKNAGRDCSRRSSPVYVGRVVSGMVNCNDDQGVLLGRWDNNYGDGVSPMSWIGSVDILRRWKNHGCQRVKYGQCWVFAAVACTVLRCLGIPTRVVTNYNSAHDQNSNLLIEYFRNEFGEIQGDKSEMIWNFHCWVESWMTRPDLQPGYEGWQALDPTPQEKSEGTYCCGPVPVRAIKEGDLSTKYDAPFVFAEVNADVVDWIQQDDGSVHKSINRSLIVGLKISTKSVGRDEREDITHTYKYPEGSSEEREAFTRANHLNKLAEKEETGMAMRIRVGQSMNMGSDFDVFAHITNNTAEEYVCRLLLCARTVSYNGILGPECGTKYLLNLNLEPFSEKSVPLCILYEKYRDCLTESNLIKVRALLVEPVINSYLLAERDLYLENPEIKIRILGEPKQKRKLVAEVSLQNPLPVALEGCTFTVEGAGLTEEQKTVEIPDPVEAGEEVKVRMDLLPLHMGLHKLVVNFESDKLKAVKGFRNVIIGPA
Kind of assay: IGFBP-3 kinase activity of anti-TG2 immunoprecipitates from solubilized membranes. The class given is biochemical. The arrangement: endogenous in cells; host or cells: T47D or MCF-7 cell membranes (anti-TG2 immunoprecipitate on protein A-agarose). Conditions: cystamine 20 μM, ROCK2 inhibitor 5 μM (FIG. 3C). The procedure:
To 200 μl of solubilized membranes from T47D of MCF-7 cells, 10 μl of anti-TG2 goat polyclonal antiserum (Upstate Biotechnology, Lake Placid, N.Y.) and incubated for 1 h at 4° C. 20 μl of protein A-agarose (Pierce) was added and further incubated on a rotating device overnight at 4° C. At the end of incubation the pellet was washed four times in ice cold PBS. The supernatant was discarded and the pellet was resuspended in 50 μl of kinase buffer. 10 μl of the resuspended sample was used for phosphorylation of 500 ng of IGFBP-3. The samples were analyzed by SDS-PAGE, autoradiography and immunoblotting with TG2 antiserum.
We next examined the effect of TG2 and ROCK2 antisera on IGFBP-3 kinase activity present in cell membrane preparations. Antiserum against TG2 but not ROCK2 antiserum was able to immunodeplete IGFBP-3 kinase activity from membrane preparations (FIG. 3A). When the immunoprecipitates were analyzed for kinase activity, the precipitates obtained with TG2 antiserum but not those obtained with ROCK2 antiserum had kinase activity. Furthermore, the IGFBP-3 kinase activity present in the immunoprecipitates was inhibited by cystamine but not by the ROCK2 inhibitor.

In assay [2] the target is T1, TG2. As to the kind of experiment: IGFBP-3 kinase activity of recombinant human TG2. The class given is biochemical. To be noted: for effect on phosphorylation of IGFBP-3 by human recombinant TG2: cystamine 20 μM, MDC 200 μM (FIG. 4A). The arrangement: histidine-tagged full length human TG2 expressed using baculovirus expression system in insect cells; histidine tag; made in house; host or cells: insect cells (baculovirus expression system). The method, then:
as §1
Purified guinea pig liver TG2 and human recombinant TG2 both were able to phosphorylate IGFBP-3 (FIG. 4A). This process was inhibited cystamine and MDC. The related binding protein IGFBP-5 was also phosphorylated by TG2 whereas IGFBP-1 was not phosphorylated by TG2 (FIG. 4B). […] Fibronectin, another reported substrate for TG2 (Akimov and Belkin, 2001, J. Cell Sci., 114:2989–3000), was not phosphorylated by this enzyme under the conditions we used to phosphorylate IGFBP-3 (FIG. 4B). […]

Assay [3] addresses T1, TG2. As to the kind of experiment: Cross-linking activity of recombinant TG2 (polymerization of IGFBP-3). The class given is biochemical. The arrangement: histidine-tagged full length human TG2 expressed using baculovirus expression system in insect cells; histidine tag; made in house; host or cells: insect cells (baculovirus expression system). Conditions: recombinant TG2, increasing calcium concentration (FIG. 4C).

The subject of a further assay is MCF-7 cell membranes. Kind of assay: Phosphorylation of IGFBP-3 by MCF-7 cell membranes. The assay is classed as biochemical, human. Conditions: cystamine 20 μM, MDC 200 μM (FIG. 2B). The method, then:
as §1, with “In experiments where cell monolayers were used to phosphorylate IGFBP-3, cells were grown in 24-well culture plate to near confluence and washed with PBS to remove residual media and serum. Phosphorylation was then performed in 100 pI reaction mixture as above, containing 1 μg IGFBP-3 for 10 min at 37° C.” left out, “In some experiments, cell monolayer were treated with TG2 inhibitor for 30 min prior to the phosphorylation reaction.” left out
We assessed the effect of the TG2 and ROCK2 inhibitors on phosphorylation of IGFBP-3 by cell monolayers. […] After termination of the incubation, the IGFBP-3 was analyzed by SDS-PAGE and autoradiography (FIG. 2A). […]

Another assay deals with T2, guinea pig liver TG2 (UniProt P08587).
T2 construct: Both TG2 purified from guinea pig liver and recombinant human TG2 expressed in insect cells were able to phosphorylate IGFBP-3; purchased Sigma-Aldrich, MO; host or cells: guinea pig liver (tissue-purified)
T2 sequence (P08587 1-690): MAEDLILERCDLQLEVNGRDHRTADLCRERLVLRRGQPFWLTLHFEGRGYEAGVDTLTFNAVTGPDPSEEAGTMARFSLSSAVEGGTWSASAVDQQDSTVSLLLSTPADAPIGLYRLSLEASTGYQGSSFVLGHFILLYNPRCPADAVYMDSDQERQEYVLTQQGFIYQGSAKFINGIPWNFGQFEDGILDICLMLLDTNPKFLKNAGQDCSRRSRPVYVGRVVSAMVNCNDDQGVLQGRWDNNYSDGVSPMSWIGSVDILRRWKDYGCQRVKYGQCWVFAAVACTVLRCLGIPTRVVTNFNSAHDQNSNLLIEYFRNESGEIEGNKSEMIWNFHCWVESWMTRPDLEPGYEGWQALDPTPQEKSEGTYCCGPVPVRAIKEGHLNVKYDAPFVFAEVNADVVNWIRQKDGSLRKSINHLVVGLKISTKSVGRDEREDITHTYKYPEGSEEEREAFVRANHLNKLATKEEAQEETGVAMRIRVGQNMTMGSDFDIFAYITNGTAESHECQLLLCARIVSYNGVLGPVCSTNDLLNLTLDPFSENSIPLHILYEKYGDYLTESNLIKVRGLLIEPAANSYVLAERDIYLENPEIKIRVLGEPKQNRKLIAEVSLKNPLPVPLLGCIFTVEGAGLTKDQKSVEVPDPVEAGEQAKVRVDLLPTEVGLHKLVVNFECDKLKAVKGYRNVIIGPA
As to the kind of experiment: IGFBP-3 kinase activity of purified guinea pig liver TG2. The class given is biochemical. Conditions: cystamine 20 μM, MDC 200 μM (FIG. 4A). The method, then:
as §1, with “Phosphorylation was then performed in 100 pI reaction mixture as above, containing 1 μg IGFBP-3 for 10 min at 37° C.” left out, “In some experiments, cell monolayer were treated with TG2 inhibitor for 30 min prior to the phosphorylation reaction.” left out

The mark [4] stands for this setting: T47D cell monolayers pre-incubated 30 minutes with inhibitor, 32P-ATP, 10 minutes at 37° C., autoradiography (FIG. 2A).

Each structure is given as a SMILES string. Entries after “also recorded” stand apart in the source; their conditions may differ.

In the case of `C[C@@H](N)[C@H]1CC[C@H](C(=O)Nc2ccncc2)CC1.Cl.Cl` (relative stereo) [ROCK2 inhibitor, R (+)trans-N-(4-pyridyl)-4-(1aminoethyl)-cyclohexanecarboxamide dihydrochloride], the “effect on IGFBP-3 kinase activity of breast cancer cell monolayers” value in the assay on T47D cell monolayers (breast cancer cell monolayers (FIG. 2A)) is recorded as “no effect”. Further, in the assay on T47D cell membranes, the “effect on phosphorylation of IGFBP-3 by T47D cell membranes” value (“effect … by T47D cell membranes” for short) is recorded as “no effect”. At TG2 [1], the “effect on IGFBP-3 kinase activity present in anti-TG2 immunoprecipitates” value is given as “not”.
In the case of `[Ca+2]` [calcium], the “effect of increasing calcium concentration on kinase activity of TG2” value at TG2 [2] (recombinant TG2, increasing calcium concentration (FIG. 4C)) was “decrease in the kinase activity; also recorded: inhibited in a concentration dependent fashion”. The “effect of increasing calcium concentration on polymerization of IGFBP-3 (cross-linking activity of TG2)” value at TG2 [3] was “increase in polymerization”.
`NCCSSCCN` [cystamine]: in the assay on T47D cell monolayers (setting [4]), the “concentration at which complete inhibition of IGFBP-3 phosphorylation was apparent” value amounted to 50 µM and the “concentration at which inhibition of IGFBP-3 phosphorylation was seen (as little as)” value came to 20 µM. Moreover, the “effect … by T47D cell membranes” value in the assay with T47D cell membranes is reported as “inhibited; also recorded: abolished”. Also, in the assay on MCF-7 cell membranes, the “effect on phosphorylation of IGFBP-3 by MCF-7 cell membranes” value is given as “inhibited”. Also, the “effect on phosphorylation of IGFBP-3 by purified guinea pig liver TG2” value on guinea pig liver TG2 is “inhibited”. Also, the “effect on IGFBP-3 kinase activity present in anti-TG2 immunoprecipitates” value on TG2 [1] is listed as “inhibited”. In addition, the “effect on phosphorylation of IGFBP-3 by human recombinant TG2” value at TG2 [2] was “inhibited”.
With `CN(C)c1cccc2c(S(=O)(=O)NCCCCCN)cccc12` [MDC, monodansyl cadaverine], the “effect … by T47D cell membranes” value in the assay with T47D cell membranes was “inhibited”; in the assay on T47D cell membranes (listed as monodansyl cadaverine), “abolished”. Besides, the “effect on phosphorylation of IGFBP-3 by MCF-7 cell membranes” value in the assay with MCF-7 cell membranes is on record as “inhibited”. The “effect on phosphorylation of IGFBP-3 by purified guinea pig liver TG2” value on guinea pig liver TG2 is listed as “inhibited”. Moreover, the “effect on phosphorylation of IGFBP-3 by human recombinant TG2” value on TG2 [2] was “inhibited”.

The values are drawn from patent publication US7090971B2, “Transglutaminase has intrinsic kinase activity” (priority 2004, dated 2006).
